Measured values: patent US9034891B2, “Bicyclic heterocyclic spiro compounds” (ISRAEL INSTITUTE FOR BIOLOGICAL RESEARCH, priority 2009, dated 2015)
Like-named read-outs stand apart in the source and are kept apart here.

How the values were obtained:
Wistar rats = assay: Passive avoidance, trihexyphenidyl-induced memory impairment in rats; format: in vivo, rat
From the text: Trihexyphenidyl is a selective M1 muscarinic antagonist that crosses the blood brain barrier and induces memory and learning impairments (Bymaster et al., J Pharmacol Exp. Ther. 267: 16-24, 1993; Roldan et al., Neurosci. Lett. 230: 93-96, 1997; Kimura et al., Brain Res. 834: 6-12, 1999). […] Naive Wistar rats were used in the experiments below. The passive avoidance (PA) task consists of a training (acquisition) phase and a retention phase. In the training procedure each rat was individually placed in the small illuminated compartment and after 60 s. of familiarization/adaptation, the door to the large compartment was opened and the latency to enter was measured (Initial Latency) Immediately following entry into the dark compartment, the door was closed and inescapable foot shock (0.6 mA for 3 s) was delivered through the grid floor. […] After the acquisition trial the rat was returned to its home cage. Retention of the passive avoidance task was measured 24 h later, by again placing the rat in the light compartment and after a 60 s adaptation interval, the door was opened and the latency to re-enter the dark compartment was measured. […] Two separate experiments were conducted. […] In both experiments the rats were divided into 2 groups. One main group was treated with trihexyphenidyl (5 mg/kg, s.c) and the second main group was treated with vehicle (DDW-1 ml/kg, s.c.), 30 min before the shock.
In a further extension of these studies, retention of the passive avoidance task was measured 72 h later, by again placing the rat in the light compartment and after a 60 s adaptation interval, the door was opened and the latency to re-enter the dark compartment was measured. A cutoff point of 600 s was used for retention latency. […] Rats were divided into 2 groups. One group (N=30) was treated with trihexyphenidyl (5 mg/kg, s.c) and the second group (N=29) was treated with vehicle (DDW-1 ml/kg, s.c.), 30 min before the shock.

α7 nicotinic receptor = α7 nicotinic receptor (Homo sapiens, UniProt P36544); assay: Binding to α7 nicotinic receptor; conditions: 0.1 nM-10 μM
From the text: (§1) It was specifically designed to provide information not only on potential limitations of drug candidates, but also for off-target activity identification. […] In a further extension of this study, functional studies were done on most of these receptors.

GSK-3β = assay: Phospho-GSK3β (Ser 9) western blot in PC12 cells transfected with M1 mAChR, +Aβ25-35; format: cell-based, rat; conditions: 100 μM-1 nM; Aβ25-35 20 μM
From the text: Anti-GSK-3 (Santa Cruz Biotechnology) is a phosphorylation-independent monoclonal antibody reactive with both GSK-3α and GSK3β. In the same experiments the status of tau protein phosphorylation was studied using mouse anti Tau-1 monoclonal antibody (Chemicon, CAT number MAB3420), which recognizes an unphosphorylated epitope of tau.

sigma 2 receptor = sigma 2 receptor (Homo sapiens, UniProt Q5BJF2); assay: Binding to sigma 2 receptor; conditions: 0.1 nM-10 μM
From the text: as §1

5HT2A receptor = 5HT2A receptor (Homo sapiens, UniProt P28223); assay: High-throughput profiling, binding at 10 μM
From the text: as §1

Mu Receptor [1] = target: T1, Mu Receptor (Homo sapiens, UniProt P35372); assay: High-throughput profiling, binding at 10 μM
From the text: as §1

M2 mAChR = M2 mAChR (Homo sapiens, UniProt P08172); assay: High-throughput profiling, binding at 10 μM
From the text: as §1

5HT2C Receptor = 5HT2C Receptor (Homo sapiens, UniProt P28335); assay: High-throughput profiling, binding at 10 μM
From the text: as §1

5HT Transporter = 5HT Transporter (Homo sapiens, UniProt P31645); assay: High-throughput profiling, binding at 10 μM
From the text: as §1

5HT2B Receptor [2] = target: T2, 5HT2B Receptor (Homo sapiens, UniProt P41595); assay: High-throughput profiling, binding at 10 μM
From the text: as §1

[3] = Protocol: On the day of dosing, careful clinical examinations were carried out and recorded periodically during the first 4 hours post-dosing and at the end of the respective working day. Thereafter, animals were inspected and clinical signs were recorded at least once daily throughout the entire 14-day observation period. Observations included changes in skin, fur, eyes, mucous membranes, occurrence of secretions and excretions (e.g. diarrhea) and autonomic activity (e.g. lacrimation, salivation, piloerection, pupil size, unusual respiratory pattern). Changes in gait, posture and response to handling, as well as the presence of bizarre behavior, tremors, convulsion, sleep and coma were also examined. […] In view of the sequential method applied in the current study and in order to standardize, as much as possible, all body weight and body weight gain values, the respective percentage change in body weight vs. the day of dosing was calculated for each animal and group. […] All animals were subjected to a full detailed necropsy and gross pathological examination following the scheduled termination. At necropsy, all animals were subjected to thorough examination, including the external surface of the body, all orifices, cranial, thoracic and abdominal cavities and their contents.
α-4β2 nicotinic receptor = α-4β2 nicotinic receptor (Homo sapiens, UniProt P17787+P43681); assay: Binding to α4β2 nicotinic receptor; conditions: 0.1 nM-10 μM
From the text: as §1

Mu Receptor [4] = target: T1, Mu Receptor; assay: Functional study, agonist
From the text: as §1

5HT2B Receptor [5] = target: T2, 5HT2B Receptor; assay: Functional study, agonist; conditions: 100 μM
From the text: as §1

M1 mAChR = target: T3, M1 mAChR (Rattus norvegicus, UniProt P08482); conditions: [3H]PZ, rat cortical membranes
T3 sequence (P08482 1-460): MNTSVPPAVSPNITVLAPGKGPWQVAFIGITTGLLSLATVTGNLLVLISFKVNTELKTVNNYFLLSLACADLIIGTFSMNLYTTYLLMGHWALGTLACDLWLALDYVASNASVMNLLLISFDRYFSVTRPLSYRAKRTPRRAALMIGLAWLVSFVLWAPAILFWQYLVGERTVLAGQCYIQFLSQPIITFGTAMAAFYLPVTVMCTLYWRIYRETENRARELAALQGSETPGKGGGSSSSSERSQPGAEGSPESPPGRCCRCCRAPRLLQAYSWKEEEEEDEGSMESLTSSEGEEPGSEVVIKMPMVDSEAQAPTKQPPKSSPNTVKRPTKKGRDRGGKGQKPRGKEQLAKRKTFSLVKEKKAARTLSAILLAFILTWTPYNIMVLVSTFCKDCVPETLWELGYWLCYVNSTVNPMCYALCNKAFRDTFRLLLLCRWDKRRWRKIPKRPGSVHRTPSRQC

sigma 1 receptors = target: T4, sigma 1 receptors (Cavia porcellus, UniProt Q60492); assay: Displacement of tritiated-pentazocine from guinea-pig cerebral cortex; format: binding
T4 construct: displacement assay of tritiated-pentazocine from guinea-pig cerebral cortex; from tissue; host or cells: guinea-pig cerebral cortex
From the text: as §1

T2 sequence (P41595 whole entry): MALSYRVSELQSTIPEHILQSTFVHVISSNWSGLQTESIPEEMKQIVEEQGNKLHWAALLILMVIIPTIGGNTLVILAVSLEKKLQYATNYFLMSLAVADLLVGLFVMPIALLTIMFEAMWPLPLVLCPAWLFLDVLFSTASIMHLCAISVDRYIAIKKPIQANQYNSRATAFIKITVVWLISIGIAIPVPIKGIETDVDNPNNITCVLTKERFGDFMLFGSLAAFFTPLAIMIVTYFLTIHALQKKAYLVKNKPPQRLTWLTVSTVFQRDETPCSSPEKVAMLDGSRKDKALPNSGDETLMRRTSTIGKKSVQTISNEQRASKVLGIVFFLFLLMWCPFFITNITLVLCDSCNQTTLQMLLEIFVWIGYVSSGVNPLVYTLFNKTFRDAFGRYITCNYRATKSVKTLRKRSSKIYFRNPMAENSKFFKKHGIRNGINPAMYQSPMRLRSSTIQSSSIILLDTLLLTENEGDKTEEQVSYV
T4 sequence (Q60492 whole entry): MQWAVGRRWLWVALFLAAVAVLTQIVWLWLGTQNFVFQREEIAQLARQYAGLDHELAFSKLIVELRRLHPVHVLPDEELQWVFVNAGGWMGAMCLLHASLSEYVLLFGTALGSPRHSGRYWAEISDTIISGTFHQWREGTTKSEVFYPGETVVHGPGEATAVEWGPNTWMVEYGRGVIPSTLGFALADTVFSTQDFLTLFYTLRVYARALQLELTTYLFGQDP
T1 sequence (P35372 whole entry): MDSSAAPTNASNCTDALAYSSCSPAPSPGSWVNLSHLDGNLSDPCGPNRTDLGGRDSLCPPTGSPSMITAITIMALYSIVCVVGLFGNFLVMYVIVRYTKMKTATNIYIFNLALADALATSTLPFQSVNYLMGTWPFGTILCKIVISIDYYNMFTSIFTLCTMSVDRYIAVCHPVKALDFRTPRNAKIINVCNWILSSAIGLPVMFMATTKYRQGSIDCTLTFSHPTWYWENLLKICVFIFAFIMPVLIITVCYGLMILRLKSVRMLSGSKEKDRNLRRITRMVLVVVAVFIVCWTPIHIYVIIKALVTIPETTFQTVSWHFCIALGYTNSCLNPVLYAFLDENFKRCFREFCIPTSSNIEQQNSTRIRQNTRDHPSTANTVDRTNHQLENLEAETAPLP
Chain of sigma 2 receptor (Q5BJF2 whole entry, species assumed): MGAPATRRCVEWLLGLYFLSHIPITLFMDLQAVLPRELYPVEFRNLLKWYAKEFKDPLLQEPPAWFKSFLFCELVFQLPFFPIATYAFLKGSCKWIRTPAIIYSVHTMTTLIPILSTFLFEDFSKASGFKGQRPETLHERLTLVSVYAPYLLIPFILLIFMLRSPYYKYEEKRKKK
Chain of 5HT Transporter (P31645 whole entry, species assumed): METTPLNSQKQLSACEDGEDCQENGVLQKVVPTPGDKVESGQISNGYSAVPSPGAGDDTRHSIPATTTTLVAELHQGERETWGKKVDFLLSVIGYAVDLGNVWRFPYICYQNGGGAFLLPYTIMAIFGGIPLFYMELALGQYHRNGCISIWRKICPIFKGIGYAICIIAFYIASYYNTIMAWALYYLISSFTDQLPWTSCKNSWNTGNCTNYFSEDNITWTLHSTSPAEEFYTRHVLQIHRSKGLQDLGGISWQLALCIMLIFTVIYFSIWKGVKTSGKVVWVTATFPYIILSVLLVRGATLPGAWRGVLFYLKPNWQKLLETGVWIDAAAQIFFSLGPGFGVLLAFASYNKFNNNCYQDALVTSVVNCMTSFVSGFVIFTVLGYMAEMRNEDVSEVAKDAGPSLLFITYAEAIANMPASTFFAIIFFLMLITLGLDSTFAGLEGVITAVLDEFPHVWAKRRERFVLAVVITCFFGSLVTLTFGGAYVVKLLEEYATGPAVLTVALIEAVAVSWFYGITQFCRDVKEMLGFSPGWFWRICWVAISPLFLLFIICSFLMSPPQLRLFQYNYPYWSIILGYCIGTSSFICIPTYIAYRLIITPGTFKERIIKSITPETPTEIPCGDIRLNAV
Chain of 5HT2A receptor (P28223 whole entry): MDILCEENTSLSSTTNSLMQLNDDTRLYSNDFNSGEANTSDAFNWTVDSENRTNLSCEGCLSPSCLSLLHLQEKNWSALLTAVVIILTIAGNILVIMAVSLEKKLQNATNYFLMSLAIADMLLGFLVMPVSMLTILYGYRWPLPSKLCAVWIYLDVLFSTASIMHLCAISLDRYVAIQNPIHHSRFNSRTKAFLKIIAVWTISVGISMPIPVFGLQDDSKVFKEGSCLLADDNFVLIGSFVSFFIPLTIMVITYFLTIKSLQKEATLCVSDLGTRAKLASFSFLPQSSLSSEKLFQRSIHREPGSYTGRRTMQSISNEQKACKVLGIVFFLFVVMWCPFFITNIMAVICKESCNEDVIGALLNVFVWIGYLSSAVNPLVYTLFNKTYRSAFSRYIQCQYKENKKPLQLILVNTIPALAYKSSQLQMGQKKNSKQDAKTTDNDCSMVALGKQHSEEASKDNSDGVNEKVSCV
Chain of α7 nicotinic receptor (P36544 23-502): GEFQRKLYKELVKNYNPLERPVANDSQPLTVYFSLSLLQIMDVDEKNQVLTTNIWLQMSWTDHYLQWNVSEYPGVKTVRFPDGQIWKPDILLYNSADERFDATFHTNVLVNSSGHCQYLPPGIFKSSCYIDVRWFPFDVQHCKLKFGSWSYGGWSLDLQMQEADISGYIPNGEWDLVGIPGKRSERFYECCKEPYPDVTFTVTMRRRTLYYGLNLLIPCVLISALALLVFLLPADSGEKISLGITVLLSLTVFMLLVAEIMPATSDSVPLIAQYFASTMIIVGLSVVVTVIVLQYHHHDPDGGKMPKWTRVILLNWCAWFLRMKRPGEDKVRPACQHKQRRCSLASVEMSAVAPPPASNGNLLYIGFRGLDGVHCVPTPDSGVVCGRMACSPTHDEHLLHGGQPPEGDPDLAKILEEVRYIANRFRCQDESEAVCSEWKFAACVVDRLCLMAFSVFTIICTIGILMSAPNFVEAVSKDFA
Chain of α-4β2 nicotinic receptor (P43681 29-627 limits assumed): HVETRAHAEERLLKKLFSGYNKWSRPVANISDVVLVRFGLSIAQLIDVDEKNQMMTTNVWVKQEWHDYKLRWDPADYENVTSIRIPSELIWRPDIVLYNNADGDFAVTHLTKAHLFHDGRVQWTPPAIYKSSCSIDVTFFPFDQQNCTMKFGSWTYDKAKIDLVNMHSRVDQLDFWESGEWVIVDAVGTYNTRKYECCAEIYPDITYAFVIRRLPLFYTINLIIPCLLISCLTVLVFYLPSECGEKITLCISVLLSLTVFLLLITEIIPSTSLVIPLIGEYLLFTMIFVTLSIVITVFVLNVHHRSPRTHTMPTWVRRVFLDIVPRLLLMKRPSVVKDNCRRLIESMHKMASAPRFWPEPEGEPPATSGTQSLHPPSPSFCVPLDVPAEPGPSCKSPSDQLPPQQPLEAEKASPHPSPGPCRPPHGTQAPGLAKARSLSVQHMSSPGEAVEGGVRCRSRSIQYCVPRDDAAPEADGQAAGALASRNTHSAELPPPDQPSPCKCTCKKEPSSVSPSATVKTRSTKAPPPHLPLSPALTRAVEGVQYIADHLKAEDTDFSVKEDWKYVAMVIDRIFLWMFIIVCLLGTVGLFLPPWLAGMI
Chain of α-4β2 nicotinic receptor (P17787 26-502): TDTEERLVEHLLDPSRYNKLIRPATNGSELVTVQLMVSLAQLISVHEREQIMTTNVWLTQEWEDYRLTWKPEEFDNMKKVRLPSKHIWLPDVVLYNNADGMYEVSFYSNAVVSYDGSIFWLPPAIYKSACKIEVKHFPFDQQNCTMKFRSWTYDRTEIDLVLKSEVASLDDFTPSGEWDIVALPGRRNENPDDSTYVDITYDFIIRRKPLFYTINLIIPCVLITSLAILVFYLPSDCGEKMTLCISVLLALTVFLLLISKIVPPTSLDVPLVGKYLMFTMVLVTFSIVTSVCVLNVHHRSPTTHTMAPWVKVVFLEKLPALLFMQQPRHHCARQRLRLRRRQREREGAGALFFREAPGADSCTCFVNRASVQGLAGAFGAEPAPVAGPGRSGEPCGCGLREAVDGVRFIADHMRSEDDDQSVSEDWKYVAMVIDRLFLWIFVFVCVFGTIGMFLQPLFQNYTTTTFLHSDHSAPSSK
Chain of 5HT2C Receptor (P28335 33-458): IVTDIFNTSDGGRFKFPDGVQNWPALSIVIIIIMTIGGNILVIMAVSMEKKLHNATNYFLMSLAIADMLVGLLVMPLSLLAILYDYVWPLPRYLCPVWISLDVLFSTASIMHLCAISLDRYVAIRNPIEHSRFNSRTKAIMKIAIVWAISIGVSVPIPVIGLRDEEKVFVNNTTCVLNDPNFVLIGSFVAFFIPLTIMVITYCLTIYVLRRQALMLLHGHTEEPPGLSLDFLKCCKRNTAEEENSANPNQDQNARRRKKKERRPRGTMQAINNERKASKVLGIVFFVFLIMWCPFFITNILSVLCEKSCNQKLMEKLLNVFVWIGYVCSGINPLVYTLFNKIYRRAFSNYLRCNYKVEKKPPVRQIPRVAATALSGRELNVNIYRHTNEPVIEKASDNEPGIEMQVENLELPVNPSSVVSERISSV
Chain of M2 mAChR (P08172 whole entry): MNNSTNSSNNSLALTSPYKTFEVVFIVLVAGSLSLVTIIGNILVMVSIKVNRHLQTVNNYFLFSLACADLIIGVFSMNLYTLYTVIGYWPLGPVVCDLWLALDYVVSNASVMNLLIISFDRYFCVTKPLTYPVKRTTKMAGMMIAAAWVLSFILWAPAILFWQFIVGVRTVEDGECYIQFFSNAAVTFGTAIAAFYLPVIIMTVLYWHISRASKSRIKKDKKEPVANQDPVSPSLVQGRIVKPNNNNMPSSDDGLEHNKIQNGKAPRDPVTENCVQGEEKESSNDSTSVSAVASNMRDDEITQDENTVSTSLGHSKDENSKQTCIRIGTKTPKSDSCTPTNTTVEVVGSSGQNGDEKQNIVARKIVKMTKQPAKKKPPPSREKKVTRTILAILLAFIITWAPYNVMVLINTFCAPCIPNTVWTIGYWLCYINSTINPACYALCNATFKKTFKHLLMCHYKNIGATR

C[C@@H]1SC2(CCN(C)CC2)CN1C(=O)CCc1c[nH]c2ccccc12 (single isomer, unassigned) [AF710B]
retention latency (Wistar rats; 1 μg/kg po, 72 h, cutoff 600 s, trihexyphenidyl+DDW 98.6±28.0, control 568.7±23.7): 276.3 ± 60.7 s | retention latency (Wistar rats; 10 μg/kg po, 72 h, cutoff 600 s): 272.7 ± 51.6 s | retention latency (Wistar rats; AF710B 10 μg/kg with NE-100 1 mg/kg): 185.4 ± 44.0 s | retention latency (Wistar rats; Experiment 1, 10 μg/kg po, 24 h, cutoff 300 s, trihexyphenidyl+DDW 54.22±14.60, control 242.00±30.60): 252.50 ± 32.30 s | retention latency (Wistar rats; Experiment 1, 30 μg/kg po, 24 h, cutoff 300 s): 178.82 ± 32.70 s | retention latency (Wistar rats; Experiment 1, 100 μg/kg po, 24 h, not different from trihexyphenidyl+DDW): 122.00 ± 34.60 s | retention latency (Wistar rats; Experiment 2, 1 μg/kg po, 24 h, trihexyphenidyl+DDW 63.89±18.79, control 274.70±20.8): 215.6 ± 36.00 s | retention latency (Wistar rats; Experiment 2, 3 μg/kg po, 24 h): 219.80 ± 36.00 s | retention latency (Wistar rats; NE-100 experiment, AF710B 10 μg/kg, trihexyphenidyl+DDW 122.0±29.2, control 525.7±51.0): 361.7 ± 67.1 s | cognitive enhancer dose range (Wistar rats; po, trihexyphenidyl-induced passive avoidance impairment): 1 to 30 µg/kg | binding to α7 nicotinic receptor (α7 nicotinic receptor): does not bind | overactivation of GSK-3β induced by Aβ25-35 (GSK-3β): inhibited the overactivation of GSK-3β | binding to sigma 2 receptor (sigma 2 receptor): does not bind | binding to 5 HT2A Receptor (5HT2A receptor): binds | binding to Mu Receptor (Mu Receptor [1]): binds | binding to M2 mAChR (M2 mAChR): binds | binding to 5HT2C Receptor (5HT2C Receptor): binds | binding to 5HT Transporter (5HT Transporter): binds | binding to 5HT2B Receptor (5HT2B Receptor [2]): binds | mortality ([3]; 1, 10 and 50 mg/kg, oral gavage, 14-day observation): No mortality | gross pathological findings at necropsy ([3]; rat, in vivo, po): No gross pathological findings | binding to α-4β2 nicotinic receptor (α-4β2 nicotinic receptor): does not bind | EC50 (Mu Receptor [4]): 13 µM | partial agonist efficacy on 5HT2B receptor (5HT2B Receptor [5]): 17% | fraction of higher affinity binding site (M1 mAChR): 29% | fraction of lower affinity binding site (M1 mAChR): 71% | Ki (M1 mAChR; read-out: lower affinity binding site KL): 41 µM | Ki (sigma 1 receptors; read-out: sigma 1 receptors KH): 0.0014 µM | Ki (sigma 1 receptors; read-out: sigma 1 receptors KL): 0.248 µM
